One assay concerns the target HIS-TGFβR2 WT (Homo sapiens, UniProt P37173). Nature of the assay: HTRF probe-displacement assay, HIS-TGFβR2 WT. The assay is classed as binding. For orientation: Time-resolved FRET reads energy transfer from a long-lived donor to a nearby acceptor.
A further assay concerns the target T1, HIS-TGFβR1 T204D (Homo sapiens, UniProt P36897, T204D).
T1 sequence (P36897 34-503 T204D): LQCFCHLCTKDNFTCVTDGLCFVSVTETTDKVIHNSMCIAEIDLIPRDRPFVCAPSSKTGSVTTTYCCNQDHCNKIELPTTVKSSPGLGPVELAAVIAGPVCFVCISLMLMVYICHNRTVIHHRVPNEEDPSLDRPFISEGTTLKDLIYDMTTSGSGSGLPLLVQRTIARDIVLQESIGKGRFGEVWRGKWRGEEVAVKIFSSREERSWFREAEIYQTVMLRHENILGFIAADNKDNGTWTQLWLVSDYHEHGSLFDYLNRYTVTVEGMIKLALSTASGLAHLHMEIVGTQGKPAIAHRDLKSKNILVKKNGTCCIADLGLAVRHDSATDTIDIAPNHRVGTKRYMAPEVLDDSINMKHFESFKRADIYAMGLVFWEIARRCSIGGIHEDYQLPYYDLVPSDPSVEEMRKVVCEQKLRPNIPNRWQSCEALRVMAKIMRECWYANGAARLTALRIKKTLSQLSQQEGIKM
Nature of the assay: HTRF probe-displacement assay, HIS-TGFβR1 T204D. Type of assay: binding. Conditions: read-out: TGFβR1 (μM) IC50.

A value given as a limit tells only on which side of the number the result lay.

Broadly, the IC50 is the point on the concentration scale where inhibition reaches its midpoint.

Chain of HIS-TGFβR2 WT (P37173 23-567): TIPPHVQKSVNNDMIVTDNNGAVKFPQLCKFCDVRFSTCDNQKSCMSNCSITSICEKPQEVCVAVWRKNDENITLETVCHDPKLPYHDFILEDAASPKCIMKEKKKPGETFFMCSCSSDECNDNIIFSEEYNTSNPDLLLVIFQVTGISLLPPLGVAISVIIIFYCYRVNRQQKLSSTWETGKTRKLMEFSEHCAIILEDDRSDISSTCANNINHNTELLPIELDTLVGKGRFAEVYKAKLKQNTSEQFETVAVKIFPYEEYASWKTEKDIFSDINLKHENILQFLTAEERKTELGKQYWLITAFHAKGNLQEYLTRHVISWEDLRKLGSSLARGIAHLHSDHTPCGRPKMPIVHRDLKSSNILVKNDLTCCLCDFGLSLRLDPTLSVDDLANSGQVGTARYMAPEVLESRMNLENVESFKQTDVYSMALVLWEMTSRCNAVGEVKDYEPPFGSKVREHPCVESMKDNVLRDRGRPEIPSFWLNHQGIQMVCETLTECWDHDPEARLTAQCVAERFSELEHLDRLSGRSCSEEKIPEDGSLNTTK

On to `COc1ccnc(-c2c(-c3ccnc(NC(C)=O)c3)[nH]c3cccnc23)c1` [Example 28, N-{4-[3-(4-Methoxypyridin-2-yl)-1H-pyrrolo[3,2-b]pyridin-2-yl]pyridin-2-yl}acetamide], for which the half-maximal inhibitory concentration (IC50) at HIS-TGFβR2 WT came to 6.05 µM; at HIS-TGFβR1 T204D, 0.2 µM.

In the case of `CCc1ccnc(-c2c(-c3ccnc(NC(C)=O)c3)[nH]c3cccnc23)c1` [Example 29, N-{4-[3-(4-Ethylpyridin-2-yl)-1H-pyrrolo[3,2-b]pyridin-2-yl]pyridin-2-yl}acetamide], the half-inhibitory concentration (IC50) at HIS-TGFβR2 WT was > 15 µM; at HIS-TGFβR1 T204D, 0.017 µM.

`CC(=O)Nc1cc(-c2[nH]c3cccnc3c2-c2cc(C)cc(Cl)n2)ccn1` [Example 30, N-{4-[3-(6-Chloro-4-methylpyridin-2-yl)-1H-pyrrolo[3,2-b]pyridin-2-yl]pyridin-2-yl}acetamide]: the IC50 at HIS-TGFβR2 WT is 0.49 µM; on HIS-TGFβR1 T204D it was 0.32 µM.

For the compound `CC(=O)Nc1cc(-c2[nH]c3cccnc3c2-c2cc(C)ccn2)ccn1` [Example 31, N-{4-[3-(4-Methylpyridin-2-yl)-1H-pyrrolo[3,2-b]pyridin-2-yl]pyridin-2-yl}acetamide], the IC50 on HIS-TGFβR2 WT was found to be 0.66 µM; on HIS-TGFβR1 T204D, 0.019 µM.

On to `CC(=O)Nc1cc(-c2[nH]c3cccnc3c2-c2cc(Cl)ccn2)ccn1` [Example 32, N-{4-[3-(4-Chloropyridin-2-yl)-1H-pyrrolo[3,2-b]pyridin-2-yl]pyridin-2-yl}acetamide], for which the IC50 was determined as 0.44 µM at HIS-TGFβR2 WT and 0.049 µM on HIS-TGFβR1 T204D.

For `CC(=O)Nc1cc(-c2[nH]c3cccnc3c2-c2ccc(Cl)c(C)n2)ccn1` [Example 33, N-{4-[3-(5-Chloro-6-methylpyridin-2-yl)-1H-pyrrolo[3,2-b]pyridin-2-yl]pyridin-2-yl}acetamide], the half-inhibitory concentration (IC50) on HIS-TGFβR2 WT was > 15 µM; on HIS-TGFβR1 T204D it was 0.005 µM.

As for `CC(=O)Nc1cc(-c2[nH]c3ccc(F)nc3c2-c2cccc(Cl)n2)ccn1` [Example 34, N-{4-[3-(6-Chloropyridin-2-yl)-5-fluoro-1H-pyrrolo[3,2-b]pyridin-2-yl]pyridin-2-yl}acetamide], the values for the IC50 at HIS-TGFβR2 WT and on HIS-TGFβR1 T204D were 0.13 µM and 0.002 µM, respectively.

For `COc1ccc(-c2c(-c3ccnc(NC(C)=O)c3)[nH]c3ccc(F)nc23)cn1` [Example 36, N-{4-[5-Fluoro-3-(6-methoxypyridin-3-yl)-1H-pyrrolo[3,2-b]pyridin-2-yl]pyridin-2-yl}acetamide], the concentration for half-maximal inhibition (IC50) was 0.06 µM at HIS-TGFβR2 WT and 0.002 µM at HIS-TGFβR1 T204D.

With `COc1ccc(-c2c(-c3ccnc(NC(C)=O)c3)[nH]c3ccc(F)nc23)nc1` [Example 37, N-{4-[5-Fluoro-3-(5-methoxypyridin-2-yl)-1H-pyrrolo[3,2-b]pyridin-2-yl]pyridin-2-yl}acetamide], the IC50 was > 15 µM on HIS-TGFβR2 WT and 0.002 µM on HIS-TGFβR1 T204D.

Take `CC(=O)Nc1cc(-c2[nH]c3cc(F)cnc3c2-c2cccc(Cl)n2)ccn1` [Example 38, N-{4-[3-(6-Chloropyridin-2-yl)-6-fluoro-1H-pyrrolo[3,2-b]pyridin-2-yl]pyridin-2-yl}acetamide]: the results for the IC50 at HIS-TGFβR2 WT and at HIS-TGFβR1 T204D were 0.11 µM and 0.002 µM, respectively.

For the compound `COc1ccc(-c2c(-c3ccnc(NC(C)=O)c3)[nH]c3cc(F)cnc23)nc1` [Example 39, N-{4-[6-Fluoro-3-(5-methoxypyridin-2-yl)-1H-pyrrolo[3,2-b]pyridin-2-yl]pyridin-2-yl}acetamide], the values for the IC50 on HIS-TGFβR2 WT and at HIS-TGFβR1 T204D were > 15 µM and 0.002 µM, respectively.

For the compound `COc1ccc(-c2c(-c3ccnc(NC(C)=O)c3)[nH]c3cc(F)cnc23)cn1` [Example 40, N-{4-[6-Fluoro-3-(6-methoxypyridin-3-yl)-1H-pyrrolo[3,2-b]pyridin-2-yl]pyridin-2-yl}acetamide], the IC50 is 0.067 µM on HIS-TGFβR2 WT and 0.005 µM at HIS-TGFβR1 T204D.

`CC(=O)Nc1cc(-c2[nH]c3cc(Cl)cnc3c2-c2cccc(Cl)n2)ccn1` [Example 41, N-{4-[3-(6-Chloropyridin-2-yl)-6-chloro-1H-pyrrolo[3,2-b]pyridin-2-yl]pyridin-2-yl}acetamide]: the IC50 on HIS-TGFβR2 WT came to 0.13 µM; at HIS-TGFβR1 T204D, 0.002 µM.

On to `CC(=O)Nc1cc(-c2[nH]c3cc(Cl)cnc3c2-c2ccc(F)cn2)ccn1` [Example 42, N-{4-[6-Chloro-3-(5-fluoropyridin-2-yl)-1H-pyrrolo[3,2-b]pyridin-2-yl]pyridin-2-yl}acetamide], for which the IC50 at HIS-TGFβR2 WT came to 0.46 µM; at HIS-TGFβR1 T204D it was 0.004 µM.

For `COc1ccc(-c2c(-c3ccnc(NC(C)=O)c3)[nH]c3cc(Cl)cnc23)cn1` [Example 43, N-{4-[6-Chloro-3-(6-methoxypyridin-3-yl)-1H-pyrrolo[3,2-b]pyridin-2-yl]pyridin-2-yl}acetamide], the results for the 50% inhibitory concentration (IC50) on HIS-TGFβR2 WT and on HIS-TGFβR1 T204D were 0.068 µM and 0.002 µM, respectively.

As for `CC(=O)Nc1cc(-c2[nH]c3cc(Cl)cnc3c2-c2cc(C)c(F)cn2)ccn1` [Example 44, N-{4-[6-Chloro-3-(5-fluoro-4-methylpyridin-2-yl)-1H-pyrrolo[3,2-b]pyridin-2-yl]pyridin-2-yl}acetamide], the half-inhibitory concentration (IC50) at HIS-TGFβR2 WT came to 0.34 µM; on HIS-TGFβR1 T204D it was 0.027 µM.

`CC(=O)Nc1cc(-c2[nH]c3cc(Cl)cnc3c2-c2cccc(F)n2)ccn1` [Example 45, N-{4-[6-Chloro-3-(6-fluoropyridin-2-yl)-1H-pyrrolo[3,2-b]pyridin-2-yl]pyridin-2-yl}acetamide]: the values for the IC50 at HIS-TGFβR2 WT and at HIS-TGFβR1 T204D were 0.11 µM and 0.003 µM, respectively.

With `CC(=O)Nc1cc(-c2[nH]c3cc(Cl)cnc3c2-c2ccc(Cl)cn2)ccn1` [Example 46, N-{4-[6-Chloro-3-(5-chloropyridin-2-yl)-1H-pyrrolo[3,2-b]pyridin-2-yl]pyridin-2-yl}acetamide], the results for the 50% inhibitory concentration (IC50) at HIS-TGFβR2 WT and at HIS-TGFβR1 T204D were > 15 µM and 0.008 µM, respectively.

`COc1ccc(-c2c(-c3ccnc(NC(C)=O)c3)[nH]c3cc(Cl)cnc23)nc1` [Example 47, N-{4-[6-Chloro-3-(5-methoxypyridin-2-yl)-1H-pyrrolo[3,2-b]pyridin-2-yl]pyridin-2-yl}acetamide]: the IC50 was > 15 µM at HIS-TGFβR2 WT and 0.004 µM on HIS-TGFβR1 T204D.

Turning to `COc1cnc2c(-c3cccc(Cl)n3)c(-c3ccnc(NC(C)=O)c3)[nH]c2c1` [Example 48, N-{4-[3-(6-Chloropyridin-2-yl)-6-methoxy-1H-pyrrolo[3,2-b]pyridin-2-yl]pyridin-2-yl}acetamide], the IC50 amounted to 0.076 µM on HIS-TGFβR2 WT and 0.001 µM at HIS-TGFβR1 T204D.

As for `COc1cnc2c(-c3ccc(F)cn3)c(-c3ccnc(NC(C)=O)c3)[nH]c2c1` [Example 49, N-{4-[3-(5-Fluoropyridin-2-yl)-6-methoxy-1H-pyrrolo[3,2-b]pyridin-2-yl]pyridin-2-yl}acetamide], the IC50 on HIS-TGFβR2 WT stood at 0.24 µM; at HIS-TGFβR1 T204D it was 0.003 µM.

`COc1cnc2c(-c3ccc(Cl)cn3)c(-c3ccnc(NC(C)=O)c3)[nH]c2c1` [Example 50, N-{4-[3-(5-Chloropyridin-2-yl)-6-methoxy-1H-pyrrolo[3,2-b]pyridin-2-yl]pyridin-2-yl}acetamide]: the 50% inhibitory concentration (IC50) on HIS-TGFβR2 WT worked out at 6.57 µM; at HIS-TGFβR1 T204D it was 0.003 µM.

Consider `COc1cnc2c(-c3ccc(F)c(C)n3)c(-c3ccnc(NC(C)=O)c3)[nH]c2c1` [Example 51, N-{4-[3-(5-Fluoro-6-methylpyridin-2-yl)-6-methoxy-1H-pyrrolo[3,2-b]pyridin-2-yl]pyridin-2-yl}acetamide], for which the IC50 at HIS-TGFβR2 WT was 0.61 µM; at HIS-TGFβR1 T204D, 0.002 µM.

The values are drawn from US9708316B2 (BRISTOL-MYERS SQUIBB COMPANY, priority 2014, dated 2017).
